Patent publication US20220251085A1, “CYSTEINE BINDING COMPOSITIONS AND METHODS OF USE THEREOF” (University of Virginia Patent Foundation, priority 2019, published 2022)
Each block holds one compound with its values, some of them ahead of it.

Assays:
[1] = biological target: T1, human eEF-Sec (Uniprot ID P57772) (Homo sapiens, UniProt P57772); assay: Competition assay: purine ligands block AHL-Pu-1 probe labeling of eEF-Sec; type: cell-based; conditions: for block of AHL-Pu-1 probe labeling of eEF-Sec (FIG. 10E) / block of AHL-Pu-1 probe labeling of eEF-Sec (FIG. 10D): ligand 4 hr, AHL-Pu-1 25 μM 1 hr; for block of AHL-Pu-1 probe labeling of eEF-Sec (FIG. 10E): 0.05 to 25 μM; for block of AHL-Pu-1 probe labeling of eEF-Sec (FIG. 10E) / block of AHL-Pu-1 probe labeling of eEF-Sec (FIG. 10D) / block of AHL-Pu-1 probe labeling of eEF-Sec: live cells; for block of AHL-Pu-1 probe labeling of eEF-Sec (FIG. 10D): 0.5 to 25 μM; for block of AHL-Pu-1 probe labeling of eEF-Sec: ligand 10 μM, AHL-Pu-1 25 μM; for inhibition of eEF-Sec probe labeling: 10 μM ligand
T1 construct: FLAG; expressed in transfected cells; host or cells: HEK293T
T1 sequence (P57772 1-596): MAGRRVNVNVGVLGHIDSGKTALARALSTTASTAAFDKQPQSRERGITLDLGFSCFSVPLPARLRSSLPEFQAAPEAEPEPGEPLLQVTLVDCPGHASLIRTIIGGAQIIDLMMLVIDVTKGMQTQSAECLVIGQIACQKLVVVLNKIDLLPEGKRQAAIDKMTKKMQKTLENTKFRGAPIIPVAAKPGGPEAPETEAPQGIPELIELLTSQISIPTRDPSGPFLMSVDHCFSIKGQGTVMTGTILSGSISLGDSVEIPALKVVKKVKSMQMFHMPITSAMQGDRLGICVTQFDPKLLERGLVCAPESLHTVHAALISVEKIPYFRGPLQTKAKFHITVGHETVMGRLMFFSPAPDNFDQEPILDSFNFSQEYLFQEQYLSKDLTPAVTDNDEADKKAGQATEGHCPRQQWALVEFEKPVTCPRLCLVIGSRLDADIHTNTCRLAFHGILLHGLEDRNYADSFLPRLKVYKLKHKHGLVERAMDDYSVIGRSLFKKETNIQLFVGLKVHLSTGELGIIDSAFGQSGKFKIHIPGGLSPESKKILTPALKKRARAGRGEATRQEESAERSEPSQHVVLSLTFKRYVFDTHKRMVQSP
Protocol: FIG. 8 is a schematic diagram showing the workflow of a fluorescent gel-based competition assay using an activity-based probe (ABP) of the presently disclosed subject matter and a competitive inhibitor.
Methods: HEK293T cells were grown at 37° C. in 5% CO2 until 40% confluent. Recombinant human eEF-Sec (Uniprot ID P57772) was expressed by transient transfection for 48 hours. […] Lysates were spun at 100,000×g for 45 minutes. […] Purine probe modified proteins were conjugated to rhodamine-azide by CuAAC, subjected to SDS-PAGE analysis, and detected by in-gel fluorescence scanning. Comparison of non-transfected (Mock) and transfected proteomes was used to identify the recombinant eEF-Sec purine probe-labeled band. […] Reduction in fluorescent signals from purine probe labeling was indicative of Pi ligand inhibitory activity. Mut represents eEF-Sec mutant where cysteine residue 442 is mutated to alanine (C442A).

[2] = HPLC assay for profiling solution reactivity and stability of purine fragments (probes) with amino acid mimetics; type: physicochemical; conditions: for effect of amine group at the 2 position on electrophilic character / adducts formed, based on HPLC traces / reaction kinetics compared to N9 counterparts: butanethiol; for reaction with butanethiol: cysteine mimetic, on ice 6 h; for effect of position of the halogen leaving group on reactivity: 6 position versus 2 position (Pu-3 versus Pu-5, Pu-4 versus Pu-6); for reaction kinetics compared to N9 counterparts: versus Pu-2, Pu-4, Pu-10
Protocol: HPLC assay for profiling solution reactivity and stability of purine fragments: The following reagents were prepared and stored on ice prior to use. 0.1 molar (M) solution of caffeine in acetonitrile, 1.0 M solution of amino acid mimetic (butanethiol—cysteine mimetic; n-butylamine—lysine mimetic; p-cresol—tyrosine mimetic; propionamide-asparagine/glutamine mimetic; butyric acid—aspartic/glutamic acid mimetic), tetramethylguanidine (TMG), 1 M acetic acid (HOAc) in acetonitrile (ACN) and 10 mM solution of purine fragment in ACN mixture. 500 μL of fragment solution were transferred to a dram vial on ice. To the mixture, 5.5 μL of TMG and 5.5 μL of respective amino acid mimetic were added and solutions were stirred on ice for 6 h. To monitor reactivity, 50 μL aliquots were removed at indicated time points and quenched with 10 μL of a 1:1 mixture of caffeine and HOAc. Samples were injected (1 μL) and analyzed by reverse-phase HPLC on a Shimadzu 1100 Series spectrometer (Shimadzu Corporation, Kyoto, Japan) with UV detection at 254 nm. Reaction progress was evaluated by monitoring consumption of starting material (purine fragment) normalized to caffeine standard. Chromatographic separation was performed using a Phenomenex Kinetex C18 column (2.6 μm, 50×4.6 mm; Phenomenex, Torrance, Calif., United States of America). Mobile phases A and B were composed of H2O+0.1% HOAc and ACN+0.1% HOAc, respectively. […] All purine fragment peak AUCs used for calculations were normalized to caffeine standard AUCs at respective time points to account for run-to-run variations by HPLC. The amount of purine fragment consumed (% starting material) was plotted as a function of time.
Discussion: An HPLC assay for determining the reactivity of the purine-based probes with mimetics of amino acid residues was performed. […] Reaction progress was monitored by monitoring the disappearance of starting material and appearance of product via HPLC.

DM93 cells = assay: Live cell activity of purine probes, gel-based (CuAAC rhodamine-azide, in-gel fluorescence); conditions: for labeling profile in live cells: DM93 cells, 25 μM, 4 hours; for reactivity of N7 versus N9 tautomers / probe labeling compared to Pu-5 and Pu-6: live DM93 cells; for probe labeling compared to Pu-5 and Pu-6: 6-chloro versus 2-chloro
Protocol: Live Cell Activity Method: DM93 cells were grown at 37° C. in 5% CO2 until 90% confluent. Once confluent cells were washed with serum free media and treated with halogenated purine probes at a final concentration of 25 μM (unless stated) for 4 hours (unless stated). Cells were then scraped and washed 3× with cold PBS and lysed in PBS+protease inhibitor. Lysates were spun at 100,000×g for 45 minutes. Halogen probe-modified proteins in soluble fractions were visualized by conjugating rhodamine-azide using copper-catalyzed azide-alkyne cycloaddition (CuAAC; 1 hour, room temperature), subjected to SDS-PAGE, and detected by in-gel fluorescence scanning. SDS-PAGE gels were also stained with Coomassie brilliant blue to determine protein load. All samples were loaded with equivalent amounts of protein. Thus, changes in purine probe labeling is not due to loading of different proteome amounts.

[3] = tested on: DM93 cells lysates (soluble fractions); assay: Lysate activity of purine probes, gel-based (in-gel fluorescence); type: biochemical; conditions: for protein labeling activity in lysates: DM93 soluble fractions, 25 μM, 2 hrs, 37° C.; for reactivity of N7 versus N9 tautomers / labeling compared to AHL-Pu-5 and AHL-Pu-6: lysates; for labeling compared to AHL-Pu-5 and AHL-Pu-6: 6-chloro versus 2-chloro
Protocol: Lysate Activity Method: DM93 cells were grown at 37° C. in 5% CO2 until 90% confluent. Once confluent, cells were scraped and washed 3× times with cold PBS and lysed in PBS+protease inhibitor. Lysates were spun at 100,000×g for 45 minutes. Soluble fractions were treated with 25 μM of halogenated purine probes (unless stated) for 2 hrs (unless stated) at 37° C. Purine probe modified proteins were conjugated to rhodamine-azide by CuAAC, subjected to SDS-PAGE analysis, and detected by in-gel fluorescence scanning. SDS-PAGE gels were stained with Coomassie brilliant blue to determine protein load.

[4] = HPLC assay for profiling solution reactivity and stability of purine adduct fragments; type: physicochemical; conditions: for preference between nucleophiles: butanethiol versus p-cresol
Protocol: HPLC assay for profiling solution reactivity and stability of purine adduct fragments: The following reagents were prepared and stored on ice prior to use. 0.1 M solution of caffeine in acetonitrile, 1.0 M solution of amino acid mimetic (butanethiol, n-butylamine, p-cresol, propionamide and butyric acid), tetramethylguanidine (TMG), 1 M HOAc in ACN and 10 mM solution of purine fragment (e.g., one of the purine adducts shown in Scheme 8, above) in ACN mixture. 500 μL of fragment solution (i.e. purified Pa-1 through Pa-6) were transferred to a dram vial on ice. To the mixture, 5.5 μL of TMG and 5.5 μL of respective amino acid mimetic were added and solutions were stirred on ice for 6 h. To monitor reactivity, 50 μL aliquots were removed at indicated time points and quenched with 10 μL of a 1:1 mixture of caffeine and HOAc. Samples were injected (1 μL) and analyzed by reverse-phase HPLC on a Shimadzu 1100 Series spectrometer with UV detection at 254 nm. Reaction progress was evaluated by monitoring consumption of starting material (purine fragment) normalized to caffeine standard. Chromatographic separation was performed using a Phenomenex Kinetex C18 column (2.6 μm, 50×4.6 mm). Mobile phases A and B were composed of H2O+0.1% HOAc and ACN+0.1% HOAc, respectively. […] All purine fragment peak AUCs used for calculations were normalized to caffeine standard AUCs at respective time points to account for run-to-run variations by HPLC. The amount of purine fragment consumed (% starting material) was plotted as a function of time.

adducts formed, based on HPLC traces [2]: likely form many different adducts | reaction with butanethiol [2]: react with butanethiol
Structure (SMILES): C#CCn1cnc2c(Cl)nc(F)nc21 [Pu-10, 6-chloro-2-fluoro-9-(prop-2-yn-1-yl)-9H-purine]
labeling profile in live cells (DM93 cells): robust labeling profiles | protein labeling activity in lysates [3]: highest protein labeling activity

reactivity with butanethiol or p-cresol ([4]; on ice 6 h): little reactivity
Structure (SMILES): C#CCn1cnc2nc(Cl)nc(SCCCC)c21 [Pa-1, 6-(Butylthio)-2-chloro-7-(prop-2-yn-1-yl)-7H-purine]

preference between nucleophiles [4]: preference for butanethiol | reactivity with nucleophiles ([4]; on ice 6 h): mild reactivity
Structure (SMILES): C#CCn1cnc2c(Cl)nc(SCCCC)nc21 [Pa-3, 2-(butylthio)-6-chloro-9-(prop-2-yn-1-yl)-9H-purine]

reactivity with nucleophiles ([4]; on ice 6 h): mild reactivity
Structure (SMILES): C#CCn1cnc2c(SCCCC)nc(F)nc21 [Pa-6, 6-(butylthio)-2-fluoro-9-(prop-2-yn-1-yl)-9H-purine]
preference between nucleophiles [4]: equivalent reactivity against butanethiol and p-cresol

reactivity of 2-halogen, 6-substituted versus 6-halogen, 2-substituted ([4]; Pa-4 versus Pa-3, butanethiol): higher reactivity | reactivity with nucleophiles ([4]; on ice 6 h): mild reactivity
Structure (SMILES): C#CCn1cnc2c(SCCCC)nc(Cl)nc21 [Pa-4, 6-(butylthio)-2-chloro-9-(prop-2-yn-1-yl)-9H-purine]
reactivity against nucleophiles, N9 versus N7 tautomer ([4]; Pa-4 versus Pa-1, butanethiol): appears to be more reactive against nucleophiles

adducts formed, based on HPLC traces [2]: likely form many different adducts | reaction with butanethiol [2]: react with butanethiol
Structure (SMILES): C#CCn1cnc2nc(F)nc(Cl)c21 [Pu-9, 6-chloro-2-fluoro-7-(prop-2-yn-1-yl)-7H-purine]
labeling profile in live cells (DM93 cells): robust labeling profiles | reactivity of N7 versus N9 tautomers (DM93 cells): more reactive | reaction kinetics compared to N9 counterparts [2]: accelerated reaction kinetics | protein labeling activity in lysates [3]: highest protein labeling activity | reactivity of N7 versus N9 tautomers [3]: more reactive

The remaining lines, values behind:

Structure (SMILES): Clc1nc(Cl)c2c(ncn2Cc2ccccc2)n1 [Pi-1, 2,6-dichloro-7-benzyl-7H-purine]
block of AHL-Pu-1 probe labeling of eEF-Sec (FIG. 10E) [1]: in a concentration dependent manner | block of AHL-Pu-1 probe labeling of eEF-Sec (FIG. 10D) [1]: in a concentration dependent manner

Structure (SMILES): C#CCn1cnc2c(Cl)nc(N)nc21 [Pu-8, 2-Amino-6-chloro-9-(prop-2-yn-1-yl)-9H-purine]
effect of amine group at the 2 position on electrophilic character [2]: dramatically reduces the electrophilic character

Structure (SMILES): O=S(=O)(N1CCOCC1)n1cnc2c(Cl)nc(Cl)nc21 [Pi-8, 4-((2,6-Dichloro-9H-purin-9-yl)sulfonyl)morpholine]
block of AHL-Pu-1 probe labeling of eEF-Sec [1]: block AHL-Pu-1 probe labeling (25 μM) in a time dependent and concentration dependent manner | block of AHL-Pu-1 probe labeling of eEF-Sec (FIG. 10D) [1]: in a concentration dependent manner

Structure (SMILES): C#CCn1cnc2nc(N)nc(Cl)c21 [Pu-7, 6-chloro-2-amino-7-(prop-2-yn-1-yl)-7H-purine]
effect of amine group at the 2 position on electrophilic character [2]: dramatically reduces the electrophilic character

Structure (SMILES): C#CCn1cnc2ncnc(Cl)c21 [Pu-3, 6-Chloro-7-(prop-2-yn-1-yl)-7H-purine]
reactivity of N7 versus N9 tautomers (DM93 cells): more reactive | probe labeling compared to Pu-5 and Pu-6 (DM93 cells): Enhanced probe labeling | effect of position of the halogen leaving group on reactivity [2]: the 6 position enhances reactivity | reaction kinetics compared to N9 counterparts [2]: accelerated reaction kinetics | reaction with butanethiol [2]: react with butanethiol | reactivity of N7 versus N9 tautomers [3]: more reactive | labeling compared to AHL-Pu-5 and AHL-Pu-6 [3]: Increased labeling

Structure (SMILES): O=[N+]([O-])c1ccc(Cn2cnc3c(Cl)nc(Cl)nc32)cc1 [Pi-6, 2,6-Dichloro-9-(4-nitrobenzyl)-9H-purine]
inhibition of eEF-Sec probe labeling [1]: loses all apparent activity

Structure (SMILES): O=[N+]([O-])c1ccc(Cn2cnc3nc(Cl)nc(Cl)c32)cc1 [Pi-5, 2,6-Dichloro-7-(4-nitrobenzyl)-7H-purine]
inhibition of eEF-Sec probe labeling [1]: greater than 50% | block of AHL-Pu-1 probe labeling of eEF-Sec [1]: block AHL-Pu-1 probe labeling (25 μM) in a time dependent and concentration dependent manner | block of AHL-Pu-1 probe labeling of eEF-Sec (FIG. 10E) [1]: in a concentration dependent manner | block of AHL-Pu-1 probe labeling of eEF-Sec (FIG. 10D) [1]: in a concentration dependent manner

Structure (SMILES): C#CCn1cnc2c(Cl)ncnc21 [Pu-4, 6-Chloro-9-(prop-2-yn-1-yl)-9H-purine]
probe labeling compared to Pu-5 and Pu-6 (DM93 cells): Enhanced probe labeling | effect of position of the halogen leaving group on reactivity [2]: the 6 position enhances reactivity | labeling compared to AHL-Pu-5 and AHL-Pu-6 [3]: Increased labeling
